In ChEMBL document CHEMBL1154382, “Preliminary SAR analysis of novel antiproliferative N(6),5'-bis-ureidoadenosine derivatives” (2009):

Experiments:
Type in all cases: functional
Conditions in all cases: values are per cent of control
A549 = test: Antiproliferative activity against human A549 cells at 10 uM assessed as cell growth inhibition relative to control
OVCAR-4 = test: Antiproliferative activity against human OVCAR4 cells at 10 uM assessed as cell growth inhibition relative to control
EKVX = test: Antiproliferative activity against human EKVX cells at 10 uM assessed as cell growth inhibition relative to control
BT-549 = test: Antiproliferative activity against human BT549 cells at 10 uM assessed as cell growth inhibition relative to control
SK-MEL-28 = test: Antiproliferative activity against human SK-MEL-28 cells at 10 uM assessed as cell growth inhibition relative to control
CCRF-CEM = test: Antiproliferative activity against human CCRF-CEM cells at 10 uM assessed as cell growth inhibition relative to control
SK-OV-3 = test: Antiproliferative activity against human SKOV3 cells at 10 uM assessed as cell growth inhibition relative to control
[1] = Antiproliferative activity against human Hs 578T cells at 10 uM assessed as cell growth inhibition relative to control
K562 = test: Antiproliferative activity against human K562 cells at 10 uM assessed as cell growth inhibition relative to control
DU-145 = test: Antiproliferative activity against human DU145 cells at 10 uM assessed as cell growth inhibition relative to control
MCF7 = test: Antiproliferative activity against human MCF7 cells at 10 uM assessed as cell growth inhibition relative to control
HOP-92 = test: Antiproliferative activity against human HOP92 cells at 10 uM assessed as cell growth inhibition relative to control
HL-60(TB) = test: Antiproliferative activity against human HL-60(TB) cells at 10 uM assessed as cell growth inhibition relative to control
NCI-H460 = test: Antiproliferative activity against human NCI-H460 cells at 10 uM assessed as cell growth inhibition relative to control
TK-10 = test: Antiproliferative activity against human TK10 cells at 10 uM assessed as cell growth inhibition relative to control
NCI-H226 = test: Antiproliferative activity against human NCI-H226 cells at 10 uM assessed as cell growth inhibition relative to control
UACC-257 = test: Antiproliferative activity against human UACC257 cells at 10 uM assessed as cell growth inhibition relative to control
RXF 393 = test: Antiproliferative activity against human RXF393 cells at 10 uM assessed as cell growth inhibition relative to control
KM12 = test: Antiproliferative activity against human KM12 cells at 10 uM assessed as cell growth inhibition relative to control
SK-MEL-2 = test: Antiproliferative activity against human SK-MEL-2 cells at 10 uM assessed as cell growth inhibition relative to control
HCT-15 = test: Antiproliferative activity against human HCT15 cells at 10 uM assessed as cell growth inhibition relative to control
LOX IMVI = test: Antiproliferative activity against human LOXIMVI cells at 10 uM assessed as cell growth inhibition relative to control
HCT-116 = test: Antiproliferative activity against human HCT116 cells at 10 uM assessed as cell growth inhibition relative to control
NCI-H322M = test: Antiproliferative activity against human NCI-H322M cells at 10 uM assessed as cell growth inhibition relative to control
SF-539 = test: Antiproliferative activity against human SF539 cells at 10 uM assessed as cell growth inhibition relative to control
MDA-MB-468 = test: Antiproliferative activity against human MDA-MB-468 cells at 10 uM assessed as cell growth inhibition relative to control
SF-295 = test: Antiproliferative activity against human SF295 cells at 10 uM assessed as cell growth inhibition relative to control
SF-268 = test: Antiproliferative activity against human SF268 cells at 10 uM assessed as cell growth inhibition relative to control
CAKI-1 = test: Antiproliferative activity against human Caki1 cells at 10 uM assessed as cell growth inhibition relative to control
OVCAR-5 = test: Antiproliferative activity against human OVCAR5 cells at 10 uM assessed as cell growth inhibition relative to control
MOLT-4 = test: Antiproliferative activity against human MOLT4 cells at 10 uM assessed as cell growth inhibition relative to control
NCI-H23 = test: Antiproliferative activity against human NCI-H23 cells at 10 uM assessed as cell growth inhibition relative to control
SNB-19 = test: Antiproliferative activity against human SNB19 cells at 10 uM assessed as cell growth inhibition relative to control
T47D = test: Antiproliferative activity against human T47D cells at 10 uM assessed as cell growth inhibition relative to control
U-251 = test: Antiproliferative activity against human U251 cells at 10 uM assessed as cell growth inhibition relative to control
Malme-3M = test: Antiproliferative activity against human MALME-3M cells at 10 uM assessed as cell growth inhibition relative to control
NCI-H522 = test: Antiproliferative activity against human NCI-H522 cells at 10 uM assessed as cell growth inhibition relative to control
SN12C = test: Antiproliferative activity against human SN12C cells at 10 uM assessed as cell growth inhibition relative to control
COLO 205 = test: Antiproliferative activity against human COLO205 cells at 10 uM assessed as cell growth inhibition relative to control
[2] = Antiproliferative activity against human […] cells at 10 uM assessed as cell growth inhibition relative to control
SK-MEL-5 = test: Antiproliferative activity against human SK-MEL-5 cells at 10 uM assessed as cell growth inhibition relative to control
OVCAR-8 = test: Antiproliferative activity against human OVCAR8 cells at 10 uM assessed as cell growth inhibition relative to control
786-0 = test: Antiproliferative activity against human 786-0 cells at 10 uM assessed as cell growth inhibition relative to control
HT-29 = test: Antiproliferative activity against human HT-29 cells at 10 uM assessed as cell growth inhibition relative to control
OVCAR-3 = test: Antiproliferative activity against human OVCAR-3 cells at 10 uM assessed as cell growth inhibition relative to control
SNB-75 = test: Antiproliferative activity against human SNB75 cells at 10 uM assessed as cell growth inhibition relative to control
IGROV-1 = test: Antiproliferative activity against human IGROV1 cells at 10 uM assessed as cell growth inhibition relative to control
SW-620 = test: Antiproliferative activity against human SW620 cells at 10 uM assessed as cell growth inhibition relative to control
MDA-MB-231 = test: Antiproliferative activity against human MDA-MB-231 cells at 10 uM assessed as cell growth inhibition relative to control
M14 = test: Antiproliferative activity against human M14 cells at 10 uM assessed as cell growth inhibition relative to control
ACHN = test: Antiproliferative activity against human ACHN cells at 10 uM assessed as cell growth inhibition relative to control
HOP-62 = test: Antiproliferative activity against human HOP62 cells at 10 uM assessed as cell growth inhibition relative to control
UACC-62 = test: Antiproliferative activity against human UACC62 cells at 10 uM assessed as cell growth inhibition relative to control
PC-3 = test: Antiproliferative activity against human PC3 cells at 10 uM assessed as cell growth inhibition relative to control
UO-31 = test: Antiproliferative activity against human UO31 cells at 10 uM assessed as cell growth inhibition relative to control
HCC 2998 = test: Antiproliferative activity against human HCC2998 cells at 10 uM assessed as cell growth inhibition relative to control

Structure (SMILES): CNC(=O)NC[C@H]1O[C@@H](n2cnc3c(NC(=O)Nc4ccccc4)ncnc32)[C@H](O[Si](C)(C)C(C)(C)C)[C@@H]1O[Si](C)(C)C(C)(C)C
- growth, % of control at 10 µM (A549): 23%
- growth, % of control at 10 µM (OVCAR-4): 30%
- growth, % of control at 10 µM (EKVX): 23%
- growth, % of control at 10 µM (BT-549): 40%
- growth, % of control at 10 µM (SK-MEL-28): 60%
- growth, % of control at 10 µM (CCRF-CEM): 43%
- growth, % of control at 10 µM (SK-OV-3): 78%
- growth, % of control at 10 µM [1]: 61%
- growth, % of control at 10 µM (K562): 34%
- growth, % of control at 10 µM (DU-145): 52%
- growth, % of control at 10 µM (MCF7): 0%
- growth, % of control at 10 µM (HOP-92): -3%
- growth, % of control at 10 µM (HL-60(TB)): 24%
- growth, % of control at 10 µM (NCI-H460): -7%
- growth, % of control at 10 µM (TK-10): 34%
- growth, % of control at 10 µM (NCI-H226): 49%
- growth, % of control at 10 µM (UACC-257): 43%
- growth, % of control at 10 µM (RXF 393): -37%
- growth, % of control at 10 µM (KM12): -4%
- growth, % of control at 10 µM (SK-MEL-2): 57%
- growth, % of control at 10 µM (HCT-15): 21%
- growth, % of control at 10 µM (LOX IMVI): 13%
- growth, % of control at 10 µM (HCT-116): 0%
- growth, % of control at 10 µM (NCI-H322M): 87%
- growth, % of control at 10 µM (SF-539): 33%
- growth, % of control at 10 µM (MDA-MB-468): 36%
- growth, % of control at 10 µM (SF-295): 45%
- growth, % of control at 10 µM (SF-268): 36%
- growth, % of control at 10 µM (CAKI-1): 60%
- growth, % of control at 10 µM (OVCAR-5): 69%
- growth, % of control at 10 µM (MOLT-4): 24%
- growth, % of control at 10 µM (NCI-H23): 36%
- growth, % of control at 10 µM (SNB-19): 76%
- growth, % of control at 10 µM (T47D): 14%
- growth, % of control at 10 µM (U-251): 17%
- growth, % of control at 10 µM (Malme-3M): 49%
- growth, % of control at 10 µM (NCI-H522): 46%
- growth, % of control at 10 µM (SN12C): -79%
- growth, % of control at 10 µM (COLO 205): -100%
- growth, % of control at 10 µM [2]: 20%
- growth, % of control at 10 µM (SK-MEL-5): 48%
- growth, % of control at 10 µM (OVCAR-8): 33%
- growth, % of control at 10 µM (786-0): 17%
- growth, % of control at 10 µM (HT-29): -68%
- growth, % of control at 10 µM (OVCAR-3): -29%
- growth, % of control at 10 µM (SNB-75): 46%
- growth, % of control at 10 µM (IGROV-1): 53%
- growth, % of control at 10 µM (SW-620): 36%
- growth, % of control at 10 µM (MDA-MB-231): 38%
- growth, % of control at 10 µM (M14): 33%
- growth, % of control at 10 µM (ACHN): 21%
- growth, % of control at 10 µM (HOP-62): 62%
- growth, % of control at 10 µM (UACC-62): 42%
- growth, % of control at 10 µM (PC-3): 8%
- growth, % of control at 10 µM (UO-31): 48%
- growth, % of control at 10 µM (HCC 2998): -1%
